Assay: Test as antiagglomerant (agglomerate inhibition) in stirred steel autoclave
Conditions: 5 000 ppm additive based on aqueous phase; water and white spirit 1:2; gas 1, 90 bar; 2° C. for 25 hours
Experimental: To investigate the inhibiting action of the compounds according to the invention, a stirred steel autoclave having temperature control, pressure and torque sensor having an internal volume of 450 ml was used. For investigations of kinetic inhibition, the autoclave was filled with distilled water and gas in a volume ratio of 20:80, and, for investigations of agglomerate inhibition, condensate was additionally added. Finally, natural gas was injected at different pressures.
Starting from a starting temperature of 17.5° C., the autoclave was cooled to 2° C. within 2 h, then stirred at 2° C. for 18 h and heated back up to 17.5° C. within 2 h. An initial pressure decrease corresponding to the thermal compression of the gas is observed. When the formation of gas hydrate nuclei occurs during the supercooling time, the pressure measured falls, and an increase in the torque measured and a slight increase in temperature can be observed. Without inhibitor, further growth and increasing agglomeration of the hydrate nuclei lead rapidly to a further increase in the torque. When the mixture is heated, the gas hydrates decompose, so that the starting state of the experimental series is attained.
On the other hand, the torque measured in the autoclave serves as a parameter for the agglomeration of the hydrate crystals. The pressure drop measured (Δp) allows a direct conclusion on the amount of hydrate crystals formed.
Gas 1: 79.3% methane, 10.8% ethane, 4.8% propane, 1.9% butane, 1.4% carbon dioxide, 1.8% nitrogen. Supercooling below the equilibrium temperture of hydrate formation at 50 bar: 12° C.
In order to test the effectiveness as agglomerate inhibitors, the test autoclave used above was initially charged with water and white spirit (20% of the volume in a ratio of 1:2) and, based on the aqueous phase, 5 000 ppm of the particular additive were added. At an autoclave pressure of 90 bar using gas 1 and a stirrer speed of 5 000 rpm, the temperature was cooled from initially 17.5° C. within 2 hours to 2° C., then the mixture was stirred at 2° C. for 25 hours and heated again. The pressure drop caused by hydrate formation and the resulting torque at the stirrer, which is a measure of the agglomeration of the gas hydrates, were measured.

Compared with `CCCCC(CC)COC(=O)COCC[N+](C)(CCOCC(=O)OCC(CC)CCCC)C1CCCC1.COS(=O)(=O)[O-]` (stereo not drawn) [Example 46], `CCCCC(CC)COC(=O)COCC[N+](C)(CCOCC(=O)OCC(CC)CCCC)C1CCCCC1.COS(=O)(=O)[O-]` (stereo not drawn) [Example 48] is higher in “Pressure drop Δ p” value: 15.1 bar for the first, 15.3 bar for the second.

In the case of `CCCCC(CC)COC(=O)COCC[N+](C)(CCCC)CCOCC(=O)OCC(CC)CCCC.COS(=O)(=O)[O-]` (stereo not drawn) [Example 50], the “Pressure drop Δ p” value is reported as 10.1 bar.

Compared with `CCCCC(CC)COC(=O)COCC[N+](C)(CCOCC(=O)OCC(CC)CCCC)C1CCCC1.COS(=O)(=O)[O-]` (stereo not drawn) [Example 46], `CCCCC(CC)COC(=O)COCC[N+](C)(CCOCC(=O)OCC(CC)CCCC)C1CCCCC1.COS(=O)(=O)[O-]` (stereo not drawn) [Example 48] is higher in “Temperature rise Δ T” value: 0.3 K for the first, 0.7 K for the second.

For `CCCCC(CC)COC(=O)COCC[N+](C)(CCCC)CCOCC(=O)OCC(CC)CCCC.COS(=O)(=O)[O-]` (stereo not drawn) [Example 50], the “Temperature rise Δ T” value was 0.1 K.

Going from `CCCCC(CC)COC(=O)COCC[N+](C)(CCOCC(=O)OCC(CC)CCCC)C1CCCC1.COS(=O)(=O)[O-]` (stereo not drawn) [Example 46] to `CCCCC(CC)COC(=O)COCC[N+](C)(CCOCC(=O)OCC(CC)CCCC)C1CCCCC1.COS(=O)(=O)[O-]` (stereo not drawn) [Example 48], the “Torque Mmax” value rises from 0.3 Ncm to 0.4 Ncm.

In the case of `CCCCC(CC)COC(=O)COCC[N+](C)(CCCC)CCOCC(=O)OCC(CC)CCCC.COS(=O)(=O)[O-]` (stereo not drawn) [Example 50], the “Torque Mmax” value is reported as 0.2 Ncm.

Reference: patent US8034748B2, “Additives for inhibiting the formation of gas hydrates” (Clariant Produkte (Deutschland) GmbH, priority 2001, dated 2011)
